From publication PMC10069031 (European Journal of Medical Research, 2023)
Read-outs that look alike come from different tables or passages of the source.

Assays:
[1] = Binding to mouse plasma; format: in vitro ADME
[2] = system: AKT; experiment: Inhibition of AKT activation in CSF1-stimulated RAW264.7 cells (western blot); format: cell-based, mouse; details: mean ± SD (replicates), read-out: Mean kinase IC50 values: P(S473)AKT [WB]
Procedure: (§1) RAW264.7 cells (10^6) were seeded into cell culture dishes 6 cm in diameter and incubated in 4 mL RPMI/10% fetal bovine serum (Biochrom) for 24 h at 37 °C in a humidified 5% CO2 atmosphere. Cells were washed once with phosphate-buffered saline (PBS) and starved in 3 mL RPMI/0.1% bovine serum albumin for another 24 h. Cells were then treated for 1 h at 37 °C with drugs at the indicated final concentrations, with 0.5% DMSO as vehicle control, or left untreated, and finally stimulated for 2 min at 37 °C with 100 ng/mL recombinant mouse CSF1 (R&D Systems) by adding 1 mL prewarmed starving medium containing 400 ng/mL CSF1. Dishes were placed on ice and cells were immediately washed with ice-cold PBS and lysed with 50 µL lysis buffer (50 mM HEPES pH 7.5, 150 mM NaCl, 1.5 mM MgCl2, 10% glycerol, 1% Triton X-100, 0.5% desoxycholate, 0.2% sodium dodecyl sulfate, 1 mM ethylene glycol-bis[β-aminoethyl ether]-N,N,N′,N′-tetraacetic acid, 100 mM NaF, 10 mM Na4P2O7, 1 mM Na3VO4, 1% Phosphatase Inhibitor Cocktail 3 [Sigma-Aldrich], 1 mM phenylmethyl sulfonyl fluoride, Complete Protease Inhibitor Cocktail [Roche CustomBiotech; 1 tablet/10 mL], and 50 U/mL Benzonase [Sigma-Aldrich]). Lysed cells were scraped into Eppendorf tubes, incubated on ice for 20 min, and centrifuged at 4 °C for 10 min at 13,000 rpm; supernatants (lysates) were transferred into new tubes and stored at −80 °C.
(§2) Protein concentrations were determined using Pierce bicinchoninic acid assay (Thermo Fisher Scientific) and 40 µg/lane of total lysate was separated by SDS-PAGE on 4–12% Criterion XT Bis–Tris Gels (Bio-Rad) and subsequently transferred to polyvinylidene difluoride membranes using the Trans Blot Turbo Blotting System (Bio-Rad). For antigen detection, membranes were blocked with PBS Odyssey blocking reagent (LI-COR Biosciences) for 1 h at room temperature (RT). Primary antibodies were incubated overnight at 4 °C and the fluorescent secondary antibodies were incubated for 1 h at RT. After each antibody incubation, blots were washed with PBS with 0.05% Tween 20 (Carl Roth) for 15–30 min at RT. Fluorescent signals were quantitatively captured using the Odyssey DLx Infrared Imaging System (LI-COR Biosciences) and the half-maximal inhibitory concentration (IC50) values were calculated using GraphPad software (version 7 or newer).

[3] = system: ERK1/2; experiment: Inhibition of ERK activation in CSF1-stimulated RAW264.7 cells (western blot); format: cell-based, mouse; details: mean ± SD (replicates), read-out: Mean kinase IC50 values: P(T185,202;Y187,204) ERK1/2 [WB]
Procedure: as §1, §2

[4] = molecular target: VEGFR2 (Homo sapiens, UniProt P35968); experiment: Competition binding assay, reference kinase
Chain of VEGFR2 (P35968 20-1356, species assumed): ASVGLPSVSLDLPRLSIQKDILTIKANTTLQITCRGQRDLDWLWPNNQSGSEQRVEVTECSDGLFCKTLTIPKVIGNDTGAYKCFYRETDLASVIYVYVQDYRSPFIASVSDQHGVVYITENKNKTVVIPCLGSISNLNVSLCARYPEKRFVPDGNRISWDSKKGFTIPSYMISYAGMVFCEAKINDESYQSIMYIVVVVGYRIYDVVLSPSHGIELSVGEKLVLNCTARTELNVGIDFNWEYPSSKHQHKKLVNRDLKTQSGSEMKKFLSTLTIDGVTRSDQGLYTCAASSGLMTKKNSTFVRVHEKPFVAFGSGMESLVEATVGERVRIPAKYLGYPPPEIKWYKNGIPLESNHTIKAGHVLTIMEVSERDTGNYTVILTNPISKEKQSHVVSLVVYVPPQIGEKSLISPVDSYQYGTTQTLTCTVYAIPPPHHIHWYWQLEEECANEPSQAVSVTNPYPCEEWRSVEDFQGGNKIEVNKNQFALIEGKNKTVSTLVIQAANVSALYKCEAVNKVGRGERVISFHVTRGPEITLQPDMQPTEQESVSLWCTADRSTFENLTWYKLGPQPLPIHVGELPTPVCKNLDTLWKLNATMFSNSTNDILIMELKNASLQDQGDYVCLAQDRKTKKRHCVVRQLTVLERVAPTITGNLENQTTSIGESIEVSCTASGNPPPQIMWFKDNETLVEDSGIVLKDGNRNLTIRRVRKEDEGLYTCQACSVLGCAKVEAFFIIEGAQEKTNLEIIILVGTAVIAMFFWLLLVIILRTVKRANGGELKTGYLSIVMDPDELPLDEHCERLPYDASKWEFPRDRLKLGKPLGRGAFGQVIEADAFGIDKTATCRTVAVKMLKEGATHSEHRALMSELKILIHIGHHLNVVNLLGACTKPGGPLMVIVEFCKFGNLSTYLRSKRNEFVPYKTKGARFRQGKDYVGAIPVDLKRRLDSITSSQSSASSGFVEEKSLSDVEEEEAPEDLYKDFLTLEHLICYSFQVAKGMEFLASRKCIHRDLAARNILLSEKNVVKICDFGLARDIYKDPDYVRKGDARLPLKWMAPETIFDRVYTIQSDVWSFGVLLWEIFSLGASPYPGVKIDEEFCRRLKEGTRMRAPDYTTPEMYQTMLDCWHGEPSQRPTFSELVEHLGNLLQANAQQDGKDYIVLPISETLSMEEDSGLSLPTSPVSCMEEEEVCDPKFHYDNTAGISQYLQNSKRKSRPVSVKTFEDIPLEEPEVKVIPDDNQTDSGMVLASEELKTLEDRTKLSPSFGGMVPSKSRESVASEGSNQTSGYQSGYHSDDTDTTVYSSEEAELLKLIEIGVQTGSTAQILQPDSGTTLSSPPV

[5] = molecular target: T1, murine CSF1R (Mus musculus, UniProt P09581); experiment: CSF1R inhibition in RAW264.7 cells (western blot of pCSF1R); format: cell-based; details: RAW264.7 cells; for IC50: drug 1 h, CSF1 100 ng/mL 2 min, mean ± SD (replicates), M-4, M-5 from pCSF1R bands without relating to total CSF1R; for signal of total CSF1R: western blot
T1 construct: Western blot analysis of total lysates (40 µg/lane) from mouse RAW264.7 cells treated as indicated; endogenous in cells; host or cells: RAW264.7 (murine macrophages)
T1 sequence (P09581 20-977): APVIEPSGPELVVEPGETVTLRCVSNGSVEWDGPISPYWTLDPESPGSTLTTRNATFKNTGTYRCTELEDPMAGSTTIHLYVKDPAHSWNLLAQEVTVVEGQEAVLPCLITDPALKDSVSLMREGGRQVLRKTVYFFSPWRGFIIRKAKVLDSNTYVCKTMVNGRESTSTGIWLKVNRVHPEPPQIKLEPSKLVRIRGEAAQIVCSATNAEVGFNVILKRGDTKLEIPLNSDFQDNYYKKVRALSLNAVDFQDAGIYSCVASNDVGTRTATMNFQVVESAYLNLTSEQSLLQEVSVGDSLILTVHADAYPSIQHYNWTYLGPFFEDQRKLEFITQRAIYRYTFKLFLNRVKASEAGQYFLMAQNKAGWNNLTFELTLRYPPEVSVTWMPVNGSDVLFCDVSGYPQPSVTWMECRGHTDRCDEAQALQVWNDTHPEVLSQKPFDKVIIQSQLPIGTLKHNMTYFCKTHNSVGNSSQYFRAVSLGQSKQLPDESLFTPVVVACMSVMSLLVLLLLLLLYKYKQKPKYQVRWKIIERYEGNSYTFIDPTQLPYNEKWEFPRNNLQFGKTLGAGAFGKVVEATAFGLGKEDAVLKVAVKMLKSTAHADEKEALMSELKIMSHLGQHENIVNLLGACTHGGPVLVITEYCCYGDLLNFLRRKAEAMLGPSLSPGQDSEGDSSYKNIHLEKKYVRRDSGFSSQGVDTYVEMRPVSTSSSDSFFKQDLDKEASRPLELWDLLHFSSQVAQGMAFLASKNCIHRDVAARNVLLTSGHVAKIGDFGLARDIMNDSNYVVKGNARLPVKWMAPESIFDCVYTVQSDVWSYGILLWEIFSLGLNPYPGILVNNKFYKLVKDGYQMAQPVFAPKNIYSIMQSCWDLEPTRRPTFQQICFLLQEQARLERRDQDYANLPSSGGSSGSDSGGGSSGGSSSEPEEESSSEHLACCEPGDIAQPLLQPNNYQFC
Procedure: as §1, §2

[6] = read-out: Mean kinase IC50 values: P(Y559)CSF1R [WB]
[7] = read-out: Mean kinase IC50 values: P(Y721)CSF1R [WB]

Row | SMILES | unbound fraction [1] | IC50 [2] | IC50 [3] | IC50 [4] | IC50 [5, 6] | IC50 [5, 7] | signal of total CSF1R [5]
1 | NC(=O)c1cc(Oc2ccc(NC(=O)Nc3ccc(Cl)c(C(F)(F)F)c3)c(F)c2)ccn1 [M-4] | 0.332% | 276 ± 30 nM | 783 ± 34 nM | 37 nM | 273 ± 101 nM | 185 ± 29 nM | destabilized
2 | CNC(=O)c1cc(Oc2ccc(NC(=O)Nc3ccc(Cl)c(C(F)(F)F)c3)c(F)c2)cc[n+]1[O-] [M-2] | – | 63 ± 37 nM | 239 ± 239 nM | – | 66 ± 17 nM | 18 ± 7 nM | –
3 | NC(=O)c1cc(Oc2ccc(NC(=O)Nc3ccc(Cl)c(C(F)(F)F)c3)c(F)c2)cc[n+]1[O-] [M-5] | – | 93 ± 110 nM | 276 ± 197 nM | – | 19 ± 15 nM | 18 ± 14 nM | destabilized
